Reference: ChEMBL document CHEMBL1909046, “DrugMatrix in vitro pharmacology data”
pIC50, pKi: −log10 of the molar value. *1 amine or outer side, *2 acyl side, *3 side chain or, on linkers, in order; H or OH if unused. Where a SMILES comes first, the peptide text is derived from it. Bridges are numbered along the chain shown (N, C = ends). Roman numbers before positions name the chains, in order. [ ]: non-standard residue; d: D form. Actinocin(1to9) = Cc1c2oc3c(C)ccc(C(=O)[*:2])c3nc-2c(C(=O)[*:1])c(N)c1=O; NMeV = CN[C@H](C(=O)O)C(C)C; Sar = CNCC(=O)O

What was measured:
[1] = target: Sodium-dependent noradrenaline transporter (Homo sapiens, UniProt P23975); assay: DRUGMATRIX: Norepinephrine Transporter radioligand binding (ligand: [125I] RTI-55); assay type: cell membranes, MDCK, Membrane; conditions: mdck; Not Active = under 50% inhibition at 10 µM
[2] = DRUGMATRIX: beta-Lactamase enzyme inhibition (substrate: Nitrocefin); parameters: species or system Bacillus cereus; conditions: Not Active = under 50% inhibition at 10 µM
[3] = DRUGMATRIX: Sigma2 radioligand binding (ligand: [3H] Ifenprodil); assay type: cell membranes, Rattus norvegicus, Wistar, Brain, Membrane; conditions: Not Active = under 50% inhibition at 10 µM
[4] = target: Vascular endothelial growth factor receptor 1 (Homo sapiens, UniProt P17948); assay type: cell-based; conditions: huvec; note: in other assays of this panel Not Active means under 50% inhibition at 10 µM
[5] = target: T1, Muscarinic acetylcholine receptor M2 (Homo sapiens, UniProt P08172); assay type: cell membranes, CHO-K1, Membrane; conditions: cho-k1; note: in other assays of this panel Not Active means under 50% inhibition at 10 µM
T1 sequence (P08172 whole entry): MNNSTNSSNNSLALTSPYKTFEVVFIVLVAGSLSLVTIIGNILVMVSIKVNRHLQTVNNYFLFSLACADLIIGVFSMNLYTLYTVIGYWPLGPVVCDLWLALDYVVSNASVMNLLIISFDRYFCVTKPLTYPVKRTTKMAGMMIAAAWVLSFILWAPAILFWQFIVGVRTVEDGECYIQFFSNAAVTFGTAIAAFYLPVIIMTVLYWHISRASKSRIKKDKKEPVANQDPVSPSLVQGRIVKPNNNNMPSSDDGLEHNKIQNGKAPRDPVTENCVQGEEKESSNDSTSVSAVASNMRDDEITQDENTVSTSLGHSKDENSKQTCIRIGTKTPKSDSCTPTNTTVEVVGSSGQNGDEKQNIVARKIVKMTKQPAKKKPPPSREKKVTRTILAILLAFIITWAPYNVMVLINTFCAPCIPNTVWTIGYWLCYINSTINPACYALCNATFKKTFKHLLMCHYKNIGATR

Adenosine receptor A2a = Adenosine receptor A2a (Homo sapiens, UniProt P29274); assay: DRUGMATRIX: Adenosine A2A radioligand binding (ligand: […]); assay type: cell membranes, Membrane; conditions: hek293; Not Active = under 50% inhibition at 10 µM
Sequence of Adenosine receptor A2a (P29274 whole entry): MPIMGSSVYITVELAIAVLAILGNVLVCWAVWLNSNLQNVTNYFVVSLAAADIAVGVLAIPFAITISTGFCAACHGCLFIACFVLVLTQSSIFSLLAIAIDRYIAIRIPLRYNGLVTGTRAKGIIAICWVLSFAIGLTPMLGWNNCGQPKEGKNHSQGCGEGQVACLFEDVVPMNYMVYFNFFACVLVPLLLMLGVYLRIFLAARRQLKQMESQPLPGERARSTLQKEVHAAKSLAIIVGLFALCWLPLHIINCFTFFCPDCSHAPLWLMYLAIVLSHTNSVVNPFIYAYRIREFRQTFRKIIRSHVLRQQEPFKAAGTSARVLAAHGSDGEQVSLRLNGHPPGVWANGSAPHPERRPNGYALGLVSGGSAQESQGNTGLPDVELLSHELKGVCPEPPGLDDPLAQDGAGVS

Sequence of Vascular endothelial growth factor receptor 1 (P17948 whole entry): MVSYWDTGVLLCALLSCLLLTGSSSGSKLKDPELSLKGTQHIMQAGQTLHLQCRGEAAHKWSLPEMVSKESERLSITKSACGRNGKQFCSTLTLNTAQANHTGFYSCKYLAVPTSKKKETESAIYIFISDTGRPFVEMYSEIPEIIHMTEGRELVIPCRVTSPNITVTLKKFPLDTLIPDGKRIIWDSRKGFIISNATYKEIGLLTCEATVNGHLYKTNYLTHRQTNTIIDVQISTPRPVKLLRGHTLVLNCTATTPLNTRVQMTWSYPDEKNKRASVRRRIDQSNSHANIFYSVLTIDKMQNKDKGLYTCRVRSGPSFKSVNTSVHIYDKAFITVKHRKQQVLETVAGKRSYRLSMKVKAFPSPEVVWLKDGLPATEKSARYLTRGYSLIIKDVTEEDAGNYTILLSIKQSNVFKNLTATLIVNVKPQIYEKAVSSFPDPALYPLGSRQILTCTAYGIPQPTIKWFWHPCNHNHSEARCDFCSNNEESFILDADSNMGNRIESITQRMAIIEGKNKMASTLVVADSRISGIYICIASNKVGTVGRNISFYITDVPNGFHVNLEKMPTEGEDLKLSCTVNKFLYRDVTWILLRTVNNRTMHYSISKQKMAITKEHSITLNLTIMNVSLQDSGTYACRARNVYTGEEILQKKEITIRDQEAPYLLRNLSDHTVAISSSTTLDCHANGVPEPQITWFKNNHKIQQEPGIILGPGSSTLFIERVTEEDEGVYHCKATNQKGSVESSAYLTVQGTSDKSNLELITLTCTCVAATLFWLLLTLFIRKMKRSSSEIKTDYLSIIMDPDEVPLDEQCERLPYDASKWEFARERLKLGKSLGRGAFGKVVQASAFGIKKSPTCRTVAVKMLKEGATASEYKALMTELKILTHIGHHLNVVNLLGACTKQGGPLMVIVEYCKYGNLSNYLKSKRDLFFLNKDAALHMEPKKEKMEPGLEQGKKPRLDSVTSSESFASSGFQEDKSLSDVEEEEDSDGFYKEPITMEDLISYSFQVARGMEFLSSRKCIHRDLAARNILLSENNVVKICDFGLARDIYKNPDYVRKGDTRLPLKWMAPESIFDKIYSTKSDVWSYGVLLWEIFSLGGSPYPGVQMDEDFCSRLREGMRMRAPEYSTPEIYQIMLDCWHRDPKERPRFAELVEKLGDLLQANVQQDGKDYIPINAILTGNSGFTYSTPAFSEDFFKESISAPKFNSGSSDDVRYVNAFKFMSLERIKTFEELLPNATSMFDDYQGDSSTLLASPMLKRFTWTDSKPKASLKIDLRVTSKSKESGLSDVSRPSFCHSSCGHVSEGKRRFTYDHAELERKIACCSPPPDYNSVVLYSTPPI
Sequence of Sodium-dependent noradrenaline transporter (P23975 whole entry): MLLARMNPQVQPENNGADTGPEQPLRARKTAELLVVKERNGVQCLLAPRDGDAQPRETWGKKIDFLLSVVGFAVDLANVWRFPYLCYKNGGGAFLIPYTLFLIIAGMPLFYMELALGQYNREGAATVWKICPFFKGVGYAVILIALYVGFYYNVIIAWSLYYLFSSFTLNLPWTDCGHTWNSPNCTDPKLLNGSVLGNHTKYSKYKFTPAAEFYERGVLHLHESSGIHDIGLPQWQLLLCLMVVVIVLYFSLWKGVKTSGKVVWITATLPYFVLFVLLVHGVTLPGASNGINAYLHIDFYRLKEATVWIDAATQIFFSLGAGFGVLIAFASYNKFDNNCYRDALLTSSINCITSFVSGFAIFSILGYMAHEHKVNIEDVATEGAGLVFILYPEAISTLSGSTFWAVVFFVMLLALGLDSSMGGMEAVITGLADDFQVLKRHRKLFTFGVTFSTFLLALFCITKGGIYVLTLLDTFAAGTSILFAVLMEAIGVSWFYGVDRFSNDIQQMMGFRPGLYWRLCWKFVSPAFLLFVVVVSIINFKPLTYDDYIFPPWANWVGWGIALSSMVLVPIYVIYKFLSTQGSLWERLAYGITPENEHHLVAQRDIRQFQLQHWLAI

## Cc1c2oc3c(C)ccc(C(=O)N[C@@H]4C(=O)N[C@H](C(C)C)C(=O)N5CCC[C@H]5C(=O)N(C)CC(=O)N(C)[C@@H](C(C)C)C(=O)O[C@@H]4C)c3nc-2c(C(=O)N[C@@H]2C(=O)N[C@H](C(C)C)C(=O)N3CCC[C@H]3C(=O)N(C)CC(=O)N(C)[C@@H](C(C)C)C(=O)O[C@@H]2C)c(N)c1=O [DACTINOMYCIN] (I: T[dV]P[Sar][NMeV] / II: T[dV]P[Sar][NMeV]; ester I:1-I:C, II:1-II:C; linker I:N-II:N via Actinocin(1to9))
[1]
  IC50: Not Active
[2]
  IC50: Not Active
  Ki: Not Active
[3]
  IC50: Not Active
  Ki: Not Active
[4]
  IC50: Not Active
[5]
  IC50: Not Active
Adenosine receptor A2a
  IC50: Not Active

## Cc1c(O)c(=O)ccn1C [DEFERIPRONE]
[1]
  IC50: Not Active
[2]
  IC50: Not Active
  Ki: Not Active
[3]
  IC50: Not Active
  Ki: Not Active
[4]
  IC50: Not Active
[5]
  IC50: Not Active
Adenosine receptor A2a
  IC50: Not Active

## O=c1oc2ccccc2c(O)c1Cc1c(O)c2ccccc2oc1=O [DICUMAROL]
[1]
  IC50: Not Active
[2]
  IC50: Not Active
  Ki: Not Active
[3]
  IC50: Not Active
  Ki: Not Active
[4]
  IC50: Not Active
[5]
  IC50: Not Active
Adenosine receptor A2a
  IC50: Not Active

## C[C@H]1O[C@@H](O[C@H]2[C@@H](O)C[C@H](O[C@H]3[C@@H](O)C[C@H](O[C@H]4CC[C@@]5(C)[C@H](CC[C@@H]6[C@@H]5C[C@@H](O)[C@]5(C)[C@@H](C7=CC(=O)OC7)CC[C@]65O)C4)O[C@@H]3C)O[C@@H]2C)C[C@H](O)[C@@H]1O [DIGOXIN]
[1]
  IC50: Not Active
[2]
  IC50: Not Active
  Ki: Not Active
[3]
  IC50: Not Active
  Ki: Not Active
[4]
  IC50: Not Active
[5]
  IC50: Not Active
Adenosine receptor A2a
  IC50: Not Active

## CC(C)[C@@]1(NC(=O)[C@@H]2C[C@@H]3c4cccc5[nH]cc(c45)C[C@H]3N(C)C2)O[C@@]2(O)[C@@H]3CCCN3C(=O)[C@H](Cc3ccccc3)N2C1=O.CS(=O)(=O)O [DIHYDROERGOCRISTINE MESYLATE]
[1]
  IC50: Not Active
[2]
  IC50: Not Active
  Ki: Not Active
[3]
  IC50: Not Active
  Ki: Not Active
[4]
  IC50: Not Active
[5]
  IC50: Not Active
Adenosine receptor A2a
  IC50: Not Active

## CC(=O)O[C@@]12CO[C@@H]1C[C@H](O)[C@@]1(C)C(=O)[C@H](O)C3=C(C)[C@@H](OC(=O)[C@H](O)[C@@H](NC(=O)OC(C)(C)C)c4ccccc4)C[C@@](O)([C@@H](OC(=O)c4ccccc4)[C@H]21)C3(C)C.O.O.O [DOCETAXEL]
[1]
  IC50: Not Active
[2]
  IC50: Not Active
  Ki: Not Active
[3]
  IC50: Not Active
  Ki: Not Active
[4]
  IC50: Not Active
[5]
  IC50: Not Active
Adenosine receptor A2a
  IC50: Not Active

## COc1cc2nc(N3CCN(C(=O)C4COc5ccccc5O4)CC3)nc(N)c2cc1OC (configuration not stated) [DOXAZOSIN]
[1]
  IC50: Not Active
[2]
  IC50: Not Active
  Ki: Not Active
[3]
  IC50: Not Active
  Ki: Not Active
[4]
  IC50: Not Active
[5]
  IC50: Not Active
Adenosine receptor A2a
  IC50: Not Active

## C[C@H]1c2cccc(O)c2C(=O)C2=C(O)[C@]3(O)C(=O)C(C(N)=O)=C(O)[C@@H](N(C)C)[C@@H]3[C@@H](O)[C@@H]21.O [DOXYCYCLINE]
[1]
  IC50: Not Active
[2]
  IC50: Not Active
  Ki: Not Active
[3]
  IC50: Not Active
  Ki: Not Active
[4]
  IC50: Not Active
[5]
  IC50: Not Active
Adenosine receptor A2a
  IC50: Not Active

## O=C(CCCN1CC=C(n2c(=O)[nH]c3ccccc32)CC1)c1ccc(F)cc1 [DROPERIDOL]
[1]
  IC50: Not Active
[2]
  IC50: Not Active
  Ki: Not Active
[3]; read-out: IC50
  pIC50: 5.48
[3]; read-out: Ki
  pKi: 5.69
[4]
  IC50: Not Active
[5]
  IC50: Not Active
Adenosine receptor A2a
  IC50: Not Active

## CC(C)[C@H]1C(=O)N2CCC[C@H]2[C@]2(O)O[C@](NC(=O)[C@@H]3C=C4c5cccc6[nH]cc(c56)C[C@H]4N(C)C3)(C(C)C)C(=O)N12 [ERGOCORNINE]
[1]
  IC50: Not Active
[2]
  IC50: Not Active
  Ki: Not Active
[3]
  IC50: Not Active
  Ki: Not Active
[4]
  IC50: Not Active
[5]
  IC50: Not Active
Adenosine receptor A2a
  IC50: Not Active

## C[C@]12CC[C@@H]3c4ccc(O)cc4CC[C@H]3[C@@H]1CCC2=O [ESTRONE]
[1]
  IC50: Not Active
[2]
  IC50: Not Active
  Ki: Not Active
[3]
  IC50: Not Active
  Ki: Not Active
[4]
  IC50: Not Active
[5]
  IC50: Not Active
Adenosine receptor A2a
  IC50: Not Active

## OC(Cn1cncn1)(Cn1cncn1)c1ccc(F)cc1F [FLUCONAZOLE]
[1]
  IC50: Not Active
[2]
  IC50: Not Active
  Ki: Not Active
[3]
  IC50: Not Active
  Ki: Not Active
[4]
  IC50: Not Active
[5]
  IC50: Not Active
Adenosine receptor A2a
  IC50: Not Active

## CC(C)C(=O)Nc1ccc([N+](=O)[O-])c(C(F)(F)F)c1 [FLUTAMIDE]
[1]
  IC50: Not Active
[2]
  IC50: Not Active
  Ki: Not Active
[3]
  IC50: Not Active
  Ki: Not Active
[4]
  IC50: Not Active
[5]
  IC50: Not Active
Adenosine receptor A2a
  IC50: Not Active

## N=C(N)NCCN1CCCCCCC1 [GUANETHIDINE]
[1]
  IC50: Not Active
[2]
  IC50: Not Active
  Ki: Not Active
[3]
  IC50: Not Active
  Ki: Not Active
[4]
  IC50: Not Active
[5]
  IC50: Not Active
Adenosine receptor A2a
  IC50: Not Active
